Experimental data published in PubChem BioAssay AID248 (DTP/NCI, 2004).
Several values for one entry are separate records, joined by “and”; a condition that tells them apart may be missing. Identical values can stand only once. Inconclusive results and toxic doses are left out. Cut-off read from the data, not from the text of the source: active = T/C of 150% or more; inactive = T/C below 125%.

Tested on: L1210 leukemia ip in BDF1 mice, survival T/C
Assay: NCI In Vivo Anticancer Drug Screen. Data for tumor model L1210 Leukemia (intraperitoneal) in B6D2F1 (BDF1) mice
Conditions: endpoint: mean survival time, higher = longer survival
Method in brief: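 Tumor was transplanted into mice, which were then dosed with test compound or vehicle alone. Survival was recorded for each group, and the treated figure was expressed relative to the control figure.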

[1] = dose: 100.0 mg/kg/injection, schedule: Q01DX001 (ip), vehicle: Klucel (hydroxypropylcellulose) (HPC)
[2] = dose: 100.0 mg/kg/injection, schedule: Q01DX009 (ip), vehicle: Klucel (hydroxypropylcellulose) (HPC)
[3] = dose: 200.0 mg/kg/injection, schedule: Q01DX001 (ip), vehicle: Klucel (hydroxypropylcellulose) (HPC)
[4] = dose: 200.0 mg/kg/injection, schedule: Q01DX009 (ip), vehicle: Klucel (hydroxypropylcellulose) (HPC)
[5] = dose: 400.0 mg/kg/injection, schedule: Q01DX009 (ip), vehicle: Klucel (hydroxypropylcellulose) (HPC)
[6] = dose: 100.0 mg/kg/injection, schedule: Q04DX003 (ip), vehicle: saline
[7] = dose: 200.0 mg/kg/injection, schedule: Q04DX003 (ip), vehicle: saline
[8] = dose: 400.0 mg/kg/injection, schedule: Q04DX003 (ip), vehicle: saline

Measured: T/C

CS(=O)(=O)OCC(O)C(O)COS(C)(=O)=O (stereo unspecified)
inactive: dose: 50.0 mg/kg/injection, schedule: Q01DX010 (ip), vehicle: saline 93 % of control and 91 % of control | dose: 100.0 mg/kg/injection, schedule: Q01DX010 (ip), vehicle: saline 96 % of control | dose: 125.0 mg/kg/injection, schedule: Q01DX Z (ip), vehicle: carboxymethylcellulose (CMC) 103 % of control | dose: 200.0 mg/kg/injection, schedule: Q01DX010 (ip), vehicle: saline 102 % of control and 108 % of control | dose: 250.0 mg/kg/injection, schedule: Q01DX Z (ip), vehicle: carboxymethylcellulose (CMC) 112 % of control | dose: 400.0 mg/kg/injection, schedule: Q01DX010 (ip), vehicle: saline 117 % of control | dose: 440.0 mg/kg/injection, schedule: Q01DX001 (ip), vehicle: carboxymethylcellulose (CMC) 101 % of control and 107 % of control | dose: 500.0 mg/kg/injection, schedule: Q01DX Z (ip), vehicle: carboxymethylcellulose (CMC) 123 % of control | dose: 670.0 mg/kg/injection, schedule: Q01DX001 (ip), vehicle: carboxymethylcellulose (CMC) 101 % of control and 107 % of control | dose: 1000.0 mg/kg/injection, schedule: Q01DX001 (ip), vehicle: carboxymethylcellulose (CMC) 103 % of control and 110 % of control

CCOC(=O)C1(C(C)C)OC2(O)C3CCCN3C(=O)C(C(C)C)N2C1=O (stereo unspecified)
inactive: dose: 3.12 mg/kg/injection, schedule: Q03HX024 (ip), vehicle: Klucel (hydroxypropylcellulose) (HPC) 98 % of control | dose: 6.25 mg/kg/injection, schedule: Q03HX024 (ip), vehicle: Klucel (hydroxypropylcellulose) (HPC) 97 % of control | dose: 8.25 mg/kg/injection, schedule: Q01DX009 (ip), vehicle: Klucel (hydroxypropylcellulose) (HPC) 97 % of control | dose: 12.5 mg/kg/injection, schedule: Q01DX009 (ip), vehicle: Klucel (hydroxypropylcellulose) (HPC) 98 % of control | dose: 12.5 mg/kg/injection, schedule: Q03HX024 (ip), vehicle: Klucel (hydroxypropylcellulose) (HPC) 98 % of control | dose: 16.5 mg/kg/injection, schedule: Q01DX009 (ip), vehicle: Klucel (hydroxypropylcellulose) (HPC) 99 % of control | dose: 25.0 mg/kg/injection, schedule: Q01DX001 (ip), vehicle: Klucel (hydroxypropylcellulose) (HPC) 95 % of control | dose: 25.0 mg/kg/injection, schedule: Q01DX009 (ip), vehicle: Klucel (hydroxypropylcellulose) (HPC) 109 % of control | dose: 25.0 mg/kg/injection, schedule: Q03HX024 (ip), vehicle: Klucel (hydroxypropylcellulose) (HPC) 100 % of control | dose: 25.0 mg/kg/injection, schedule: Q04DX003 (ip), vehicle: alcohol 97 % of control | dose: 33.0 mg/kg/injection, schedule: Q01DX009 (ip), vehicle: Klucel (hydroxypropylcellulose) (HPC) 100 % of control | dose: 50.0 mg/kg/injection, schedule: Q01DX001 (ip), vehicle: Klucel (hydroxypropylcellulose) (HPC) 101 % of control | dose: 50.0 mg/kg/injection, schedule: Q01DX009 (ip), vehicle: Klucel (hydroxypropylcellulose) (HPC) 105 % of control | dose: 50.0 mg/kg/injection, schedule: Q03HX024 (ip), vehicle: Klucel (hydroxypropylcellulose) (HPC) 93 % of control | dose: 50.0 mg/kg/injection, schedule: Q04DX003 (ip), vehicle: alcohol 106 % of control | dose: 66.0 mg/kg/injection, schedule: Q01DX009 (ip), vehicle: Klucel (hydroxypropylcellulose) (HPC) 98 % of control | [1] 95 % of control | [2] 100 % of control | dose: 100.0 mg/kg/injection, schedule: Q04DX003 (ip), vehicle: alcohol 96 % of control | [3] 104 % of control | [4] 98 % of control | dose: 200.0 mg/kg/injection, schedule: Q04DX003 (ip), vehicle: alcohol 98 % of control

CC(=O)OC1CC2C=CC1CC2 (stereo unspecified)
inactive: dose: 50.0 mg/kg/injection, schedule: Q01DX001 (ip), vehicle: carboxymethylcellulose (CMC) 111 % of control | dose: 100.0 mg/kg/injection, schedule: Q01DX001 (ip), vehicle: carboxymethylcellulose (CMC) 101 % of control | dose: 200.0 mg/kg/injection, schedule: Q01DX001 (ip), vehicle: carboxymethylcellulose (CMC) 95 % of control | dose: 400.0 mg/kg/injection, schedule: Q01DX001 (ip), vehicle: carboxymethylcellulose (CMC) 101 % of control

NC(=O)C(O)(c1ccccc1)c1ccccc1
inactive: dose: 100.0 mg/kg/injection, schedule: Q01DX001 (ip), vehicle: saline with Tween-80 100 % of control | dose: 200.0 mg/kg/injection, schedule: Q01DX001 (ip), vehicle: saline with Tween-80 97 % of control | dose: 400.0 mg/kg/injection, schedule: Q01DX001 (ip), vehicle: saline with Tween-80 101 % of control

C[N+](C)(C)CCC[N+]1(C)Cc2ccccc2C1
inactive: dose: 55.0 mg/kg/injection, schedule: Q01DX Z (ip), vehicle: saline 91 % of control | dose: 83.0 mg/kg/injection, schedule: Q01DX Z (ip), vehicle: saline 97 % of control | dose: 125.0 mg/kg/injection, schedule: Q01DX Z (ip), vehicle: saline 96 % of control

COc1ccc(OC)c(NC(=O)SCCSC(=O)Nc2cc(OC)ccc2OC)c1
inactive: [2] 92 % of control | [4] 91 % of control | [5] 92 % of control

CCCN1c2c(nc(N)[nH]c2=O)NCC1CNc1ccc(C(=O)NC(CCC(=O)O)C(=O)O)cc1 (stereo unspecified)
inactive: dose: 100.0 mg/kg/injection, schedule: Q01DX009 (ip), vehicle: saline 96 % of control | [6] 108 % of control | dose: 200.0 mg/kg/injection, schedule: Q01DX009 (ip), vehicle: saline 101 % of control | [7] 97 % of control | dose: 400.0 mg/kg/injection, schedule: Q01DX009 (ip), vehicle: saline 96 % of control | [8] 101 % of control

CCOCC(=O)c1c(O)cc(O)cc1O
inactive: [2] 97 % of control | [4] 92 % of control | [5] 101 % of control

CCCCCS(=O)(=O)N1CCCCCC1
inactive: dose: 100.0 mg/kg/injection, schedule: Q04DX002 (ip), vehicle: other 112 % of control | dose: 200.0 mg/kg/injection, schedule: Q04DX002 (ip), vehicle: other 87 % of control | dose: 400.0 mg/kg/injection, schedule: Q04DX002 (ip), vehicle: other 87 % of control

CC[C@@](O)(C(=O)NC)c1cc2n(c(=O)c1CO)Cc1cc3ccccc3nc1-2
inactive: dose: 4.0 mg/kg/injection, schedule: Q01DX001 (ip), vehicle: saline 110 % of control | dose: 5.3 mg/kg/injection, schedule: Q01DX015 (ip), vehicle: saline 102 % of control
active: dose: 2.3 mg/kg/injection, schedule: Q01DX015 (ip), vehicle: saline 155 % of control | dose: 3.5 mg/kg/injection, schedule: Q01DX015 (ip), vehicle: saline 172 % of control

CC1(C)CCCC(C)(C)N1
inactive: dose: 50.0 mg/kg/injection, schedule: Q01DX001 (ip), vehicle: saline 94 % of control

Oc1ccc(Nc2ncnc3nc[nH]c23)cc1O
inactive: dose: 100.0 mg/kg/injection, schedule: Q04DX003 (ip), vehicle: saline with Tween-80 101 % of control | dose: 200.0 mg/kg/injection, schedule: Q04DX003 (ip), vehicle: saline with Tween-80 89 % of control | dose: 400.0 mg/kg/injection, schedule: Q04DX003 (ip), vehicle: saline with Tween-80 100 % of control

CN(C)C(=O)Sc1ccc(C(C)(C)C)cc1
inactive: [1] 95 % of control | [3] 90 % of control | dose: 400.0 mg/kg/injection, schedule: Q01DX001 (ip), vehicle: Klucel (hydroxypropylcellulose) (HPC) 112 % of control

CC(C)CC(C)(O)C(N)=O (stereo unspecified)
inactive: [6] 102 % of control | [7] 102 % of control | [8] 91 % of control

O=C(Nc1ccc(CCO)cc1)Nc1cc(C(F)(F)F)ccc1Cl
inactive: [2] 100 % of control | [4] 95 % of control

CC(=O)OCC1OC(SSCc2ccccc2)C(OC(C)=O)C(OC(C)=O)C1OC(C)=O (stereo unspecified)
inactive: dose: 100.0 mg/kg/injection, schedule: Q01DX001 (ip), vehicle: saline 96 % of control | dose: 200.0 mg/kg/injection, schedule: Q01DX001 (ip), vehicle: saline 93 % of control | dose: 400.0 mg/kg/injection, schedule: Q01DX001 (ip), vehicle: saline 93 % of control

N#CC(c1ccc(Cl)cc1)c1ccccn1 (stereo unspecified)
inactive: dose: 75.0 mg/kg/injection, schedule: Q04DX003 (ip), vehicle: other 96 % of control | dose: 150.0 mg/kg/injection, schedule: Q04DX003 (ip), vehicle: other 96 % of control | dose: 300.0 mg/kg/injection, schedule: Q04DX003 (ip), vehicle: other 94 % of control

O=[N+]([O-])c1ccc([As+](c2ccccc2)(c2ccccc2)c2ccccc2)cc1
inactive: dose: 10.0 mg/kg/injection, schedule: Q01DX001 (ip), vehicle: saline 88 % of control | dose: 20.0 mg/kg/injection, schedule: Q01DX001 (ip), vehicle: saline 92 % of control
